The text below walks through data of US20210361750A1, “Anti-Viral Lactoferrin Facemask” (priority 2020, published 2021).

For one data set, the system named is SARS-CoV-2. Description: Cyclodextrin testing: antiviral activity against SARS-CoV-2 in Vero E6 cells (CPE). Format: cell-based. The note with it: pH 7; lactoferrin alone 10 mg/mL, cyclodextrin alone 10 mg/mL, or lactoferrin 5 mg/mL + cyclodextrin 10 mg/mL.
The test system of another data set is Vero E6 cells. The conditions noted are these: control without virus, 10 mg/mL.

With “cyclodextrin [cyclodextrin alone, reference compound]”, the “antiviral activity (cytopathic effect)” value in the data set on SARS-CoV-2 is on record as “none of the experiments showed antiviral activity”. For the same substance, the “cytopathic effect on the cells” value in the data set with Vero E6 cells is “neither the lactoferrin alone (10 mg/mL) or the cyclodextrin alone (10 mg/mL) had a cytopathic effect”.
